Data taken from ChEMBL document CHEMBL2157979, “Discovery of new non-steroidal FXR ligands via a virtual screening workflow based on Phase shape and induced fit docking” (Bioorg Med Chem Lett, 2012).

Legend:
[1] = target: T1, Bile acid receptor (Homo sapiens) (UniProt Q96RI1); assay: Agonist activity at GST-tagged FXRalpha ligand binding domain assessed as biotinylated SRC1 binding at 20 uM after 30 mins by HTRF assay
T1 sequence (whole entry): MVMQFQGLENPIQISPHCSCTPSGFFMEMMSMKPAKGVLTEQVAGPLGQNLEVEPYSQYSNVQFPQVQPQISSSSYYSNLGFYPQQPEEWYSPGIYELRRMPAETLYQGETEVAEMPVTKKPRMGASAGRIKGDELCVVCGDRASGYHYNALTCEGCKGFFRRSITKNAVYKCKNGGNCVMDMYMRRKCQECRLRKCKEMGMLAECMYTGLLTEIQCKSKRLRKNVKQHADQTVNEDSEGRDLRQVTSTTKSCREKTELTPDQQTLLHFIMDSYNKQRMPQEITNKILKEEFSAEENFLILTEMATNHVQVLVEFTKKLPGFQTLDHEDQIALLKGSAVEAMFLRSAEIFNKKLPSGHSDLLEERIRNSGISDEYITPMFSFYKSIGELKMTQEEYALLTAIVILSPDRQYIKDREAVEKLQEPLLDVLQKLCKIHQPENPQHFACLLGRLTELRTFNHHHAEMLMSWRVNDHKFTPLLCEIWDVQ

[2] = target: T1, Bile acid receptor (Homo sapiens); assay: Antagonist activity at GST-tagged FXRalpha ligand binding domain assessed as inhibition of CDCA-induced biotinylated SRC1 binding at 20 uM after 30 mins by HTRF assay
[3] = target: T1, Bile acid receptor (Homo sapiens); assay: (§1) Agonist activity at GST-tagged FXRalpha ligand binding domain assessed as biotinylated SRC1 binding after 30 mins by HTRF assay
[4] = target: T2, Bile acid receptor (Homo sapiens, UniProt Q96RI1); assay: as §1
T2 sequence (Q96RI1 whole entry): T1 sequence (whole entry)

[5] = target: T1, Bile acid receptor (Homo sapiens); assay: (§2) Agonist activity at FXRalpha expressed in HEK293 cells assessed as increase in transcriptional activity after 18 hrs by luciferase reporter gene assay; assay type: functional, cell-based
[6] = target: T2, Bile acid receptor; assay: as §2; assay type: functional, cell-based
[7] = target: T1, Bile acid receptor (Homo sapiens); assay: (§3) Antagonist activity at GST-tagged FXRalpha ligand binding domain assessed as inhibition of CDCA-induced biotinylated SRC1 binding after 30 mins by HTRF assay
[8] = target: T2, Bile acid receptor; assay: as §3
[9] = target: T2, Bile acid receptor; assay: Agonist activity at FXR; assay type: functional

Compound	Activity [1] [%]	inhibition [2] [%]	Activity [3]	EC50 [4] [µM]	Activity [5]	EC50 [6] [µM]	inhibition [7]	IC50 [8] [µM]	EC50 [9] [µM]
NC(=O)c1ccc(NC(=O)[C@@H](Cc2ccccc2)NC(=O)c2ccc(Cl)cc2)cc1	52.5	7.28	Dose-dependent effect	12.9	Dose-dependent effect	2.6	–	–	–
C[C@@H]1CCc2c(sc3nc(CN4CCOCC4)nc(N[C@H](c4ccccc4)c4ccccn4)c23)C1	< 5	57.1	–	–	–	–	Dose-dependent effect	8.23	–

More lines, now with the values ahead:

Activity [1] [%]	inhibition [2] [%]	Activity [3]	EC50 [4] [µM]	Activity [5]	EC50 [6] [µM]	inhibition [7]	IC50 [8] [µM]	EC50 [9] [µM]	Compound
< 5	63.3	–	–	–	–	Dose-dependent effect	3.77	–	O=C(COC(=O)c1ccc(O)cc1)Nc1sc2c(c1C(=O)c1ccccc1)CCCC2
–	–	–	–	–	–	–	–	0.036	COC(=O)/C=C/c1cccc(N(Cc2ccc(/C=C/c3ccccc3)cc2)C(=O)C2CCCCC2)c1
–	–	–	–	–	–	–	–	0.094	Cc1cc(OCc2c(-c3c(Cl)cncc3Cl)noc2C(C)C)ccc1-c1ccc2c(c1)c(C(=O)O)cn2C
